What was measured:
A549 cells = assay: MTT cell viability assay, A549 cells; assay type: cell-based; conditions: Homo sapiens, 72 h incubation, mean and SD of three independent experiments, read-out: IC50 against A549
Procedure: (§1) Next, the cytotoxicity of the prodrugs was assessed in the human lung cancer (A549) and human ovarian cancer (OvCar-3) cell lines: overexpressing β-glucosidase, and, overexpressing both β-glucosidase and β-galactosidase, respectively.[40,41] For this, a standard MTT assay was employed to generate the proliferation profiles (cf. ESI ^† Fig. S1–S5) and allowed us to calculate the IC50 values for each compound. GM5756 fibroblast cells were included as non-cancerous control.
(§2) Cell culture. Ovcar-3 cells were maintained in RPMI-1640 medium (Invitrogen), A549 cells were maintained in high glucose (4.5 g/L) Dulbecco’s Modified Eagle’s medium (Invitrogen. Alle employed culture media were supplemented with 10% fetal bovine serum (Gibco), 2% penicillin/streptomycin (Sigma Aldrich), 1%GlutaMAX™-I (100x, Gibco), and 1% sodium pyruvate (100 mM, Gibco).
(§3) Cells were kept under a humidified atmosphere of 10% CO2 and 90% air at 37°C. Cells were split when they reached 90% confluency. All employed cell lines were sourced from the German Collection of Microorganisms and Cell Cultures (Leibnitz Institute, DSMZ).
(§4) Cell viability studies and MTT assays. Cells were harvested and plated on a 96-well plate in 100 µL growth medium at a density of 1500 cells per well. The cells were left to grow for 24 h at 37°C under a humidified atmosphere with 10% CO2. The next day, 100 µL of growth medium containing appropriate concentrations of the investigated compound were added to each well. As a control, the first row of wells was treated with 100 µL medium containing only the vehicle (1% DMSO); all wells contained a final concentration of 0.5% DMSO for the duration of the treatment. After incubation with the compound for 72 h, 50 µL of MTT solution (2.5 mg/mL 3-(4,5-dimethylthiazol-2-yl)-2,5-diphenyltetrazolium bromide dye in PBS buffer) was added to each well. After an additional incubation for 2 h, the supernatant was aspired off and 200 µL of DMSO was added to each well to solubilize the precipitated formazan dye. The produced formazan dye was quantified by measuring the optical density of the solution at 550 nm with a Tecan Infinite M Nano+ plate reader. A baseline correction was performed by subtracting a reference absorbance at 620 nm for each well. From the mean of the corrected absorbances for each set of equivalent wells, a dose-response curve was produced, which was then normalized to the wells containing untreated cells to allow for plate-to-plate comparison. The resulting dose-response curves were subjected to non-linear regression analysis performed in Microsoft Excel (version 16.64) to determine IC50 via the Hill-Langmuir model. Data is shown as the mean of three replicate experiments and error bars represent the standard deviation at each datum point.

[1] = Fe(III) binding study by UV-vis spectroscopy; conditions: 30 μM compound, excess FeCl3 (50 μM), methanol
Procedure: With the prodrugs in hand, binding studies were carried out using UV-vis spectroscopy; this was done to confirm the Fe(III) binding ability of all new compounds. […] To evaluate whether 2a, 2b, 3a, and 3b were chelating Fe(III), each prodrug was similarly dissolved in a solution containing excess FeCl3.
Fig. 2 UV-vis absorption spectra for prodrugs 2a/b and 3a/b as well as 1 at a concentration of 30 μM with an excess of FeCl3 as Fe(III) source (50 μM) in methanol.
UV-vis spectra were recorded in methanol containing the indicated ligand or prodrug at a concentration of 30 µM and as appropriate Fe(III) at a concentration of 50 µM. A stock solution of FeCl3 in DMSO was used as source of Fe(III) and ligands were added from a […] stock solution in DMSO. All samples contained a final concentration of <0.2% DMSO.
Figure S7: UV-vis absorption spectra of 1, Fe(III), and 1 + Fe(III). The graph for 1 + Fe(III) (Numerically) was constructed by numerically adding the respective signals of Fe(III) and 1 to show what graph could be expected if the two species were in the same solution without interacting.
Figure S8: UV-vis absorption spectra of 2a, Fe(III), and 2a + Fe(III). The graph for 2a + Fe(III) (Numerically) was constructed by numerically adding the respective signals of Fe(III) and 2a to show what graph could be expected if the two species were in the same solution without interacting. […]

GM5756 fibroblast cells = assay: MTT cell viability assay, GM5756 fibroblast cells (non-cancerous control); assay type: cell-based; conditions: 72 h incubation, mean and SD of three independent experiments, read-out: IC50 against GM5756
Procedure: as §1, §2, §3, §4

β-galactosidase = target: T1, β-galactosidase (Escherichia coli, UniProt P00722); assay: AIE fluorescence study of release of 1 with β-galactosidase; assay type: biochemical, e.coli; conditions: free chelator 1 as reference, 20 μM, enzyme not specified
T1 construct: purchased Roche; host or cells: E. coli overproducer
T1 sequence (P00722 2-1024): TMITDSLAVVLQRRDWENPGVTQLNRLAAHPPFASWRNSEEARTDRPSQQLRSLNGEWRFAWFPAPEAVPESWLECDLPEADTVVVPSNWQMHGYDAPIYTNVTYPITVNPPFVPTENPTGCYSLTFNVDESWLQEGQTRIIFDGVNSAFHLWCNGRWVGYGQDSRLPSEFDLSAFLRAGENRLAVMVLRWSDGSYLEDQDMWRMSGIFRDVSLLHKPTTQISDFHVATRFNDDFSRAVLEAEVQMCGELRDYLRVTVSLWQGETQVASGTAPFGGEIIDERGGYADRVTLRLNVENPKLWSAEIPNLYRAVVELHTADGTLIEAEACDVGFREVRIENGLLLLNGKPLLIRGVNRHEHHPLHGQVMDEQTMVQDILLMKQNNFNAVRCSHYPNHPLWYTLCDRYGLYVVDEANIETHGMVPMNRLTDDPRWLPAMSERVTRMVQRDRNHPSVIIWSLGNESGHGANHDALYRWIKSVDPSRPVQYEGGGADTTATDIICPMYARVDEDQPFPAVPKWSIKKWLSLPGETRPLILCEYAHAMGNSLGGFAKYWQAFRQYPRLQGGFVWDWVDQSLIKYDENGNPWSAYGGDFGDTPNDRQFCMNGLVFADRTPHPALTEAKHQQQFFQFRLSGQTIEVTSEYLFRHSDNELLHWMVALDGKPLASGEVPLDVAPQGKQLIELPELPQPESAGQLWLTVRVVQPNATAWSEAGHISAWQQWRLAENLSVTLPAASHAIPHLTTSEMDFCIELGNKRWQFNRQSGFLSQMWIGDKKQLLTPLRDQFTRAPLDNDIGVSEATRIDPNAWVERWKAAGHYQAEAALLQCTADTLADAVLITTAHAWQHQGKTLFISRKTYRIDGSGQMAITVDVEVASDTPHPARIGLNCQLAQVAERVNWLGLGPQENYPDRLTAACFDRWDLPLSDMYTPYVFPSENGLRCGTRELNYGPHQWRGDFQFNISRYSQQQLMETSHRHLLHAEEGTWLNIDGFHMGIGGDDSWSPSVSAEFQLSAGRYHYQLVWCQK
Procedure: The AIE fluorescence properties of 1 were used as a means of supporting the above conclusion. The emission of all glycosylated prodrugs is suppressed. Thus, solutions of each prodrug were prepared in water, and three enzyme units of β-galactosidase or β-glucosidase, as appropriate, were added to the prodrugs. Each mixture was then analysed by fluorescence spectroscopy after 24 h of incubation. […] This finding is consistent with a lack of enzymatic activation.
Fig. 4 Relative emission intensity at 480 nm (*for 3b at 420 nm) of evaluated compounds at 20 μM before and after incubation with 3 U of the appropriate enzyme. TEXT PRINTED IN THE PICTURE: 1: Relative Emission 480 nm: 100% (Before incubation); Relative Emission 480 nm: 100% (After 24 h incubation) | 2a: Relative Emission 480 nm: 0% (Before incubation); Relative Emission 480 nm: 0% (After 24 h incubation) | 2b: Relative Emission 480 nm: 0% (Before incubation); Relative Emission 480 nm: 1% (After 24 h incubation) | 3a: Relative Emission 480 nm: 1% (Before incubation); Relative Emission 480 nm: 33% (After 24 h incubation) | 3b*: Relative Emission 480 nm: 1% (Before incubation); Relative Emission 480 nm: 11% (After 24 h incubation) […]
Figure S25: Fluorescence spectra for excitation (blue) and emission (green) of 1 at a concentration of 20 μM in water.
Figure S26: Fluorescence spectra for excitation (blue) and emission (green) of 2a at a concentration of 20 μM in water before (left) and after (right) incubation with 3 units of b-galactosidase for 24 h. […]
Figure S28: Fluorescence spectra for excitation (blue) and emission (green) of 3a at a concentration of 20 μM in water before (left) and after (right) incubation with 3 units of β-galactosidase for 24 h. […]

OvCar-3 cells = assay: MTT cell viability assay, OvCar-3 cells; assay type: cell-based; conditions: Homo sapiens, 72 h incubation, mean and SD of three independent experiments, read-out: IC50 against OvCar-3
Procedure: as §1, §2, §3, §4

For `Oc1ccccc1-c1nc(-c2ccccc2O)n(-c2ccccc2)n1` [compound 1, reference compound], the IC50 (A549 cells) was 3.1 ± 0.4 µM, the “Absorbance at 510 nm (Fe(III) chelation band)” value [1] was “characteristic absorption band at 510 nm” and the IC50 (GM5756 fibroblast cells) was 2.7 ± 0.1 µM. The “Relative emission intensity at 480 nm” value (β-galactosidase; after 24 h incubation) was 100%, the “Relative emission intensity at 480 nm” value (β-galactosidase; before incubation) was 100% and the IC50 (OvCar-3 cells) was 3.9 ± 1.6 µM.

From PMC12177571, “Glycosidase-activated prodrugs of a cytotoxic iron chelator for targeted cancer therapy” (RSC Medicinal Chemistry, 2025)
